Laboratory results taken from patent US20170121385A1 (Oxeia Biopharmaceuticals, Inc., priority 2015, published 2017).
Where two headings read alike, the source gives them in different places.

Tests used:
GHS-R = GHS-R (Homo sapiens, UniProt Q92847); assay: GHS-R antagonist activity in a cell based assay; conditions: GHS-R modulating compounds
severe TBI [1] = assay: severe TBI model (brain tissue loss, apoptosis, balance beam foot faults, edema); assay type: in vivo, mice; conditions: as low as 20 μg/kg in two doses early after injury; pre-clinical modeling
Source text: In a series of publications, the Bansal laboratory has shown that exogenously dosed ghrelin confers significant neuroprotective benefits following severe TBI. […] Severe TBI causes significant tissue necrosis and neuron loss secondary to edema and apoptosis. […] Severe TBI induces apoptosis within the neocortex (TUNEL staining green). […] Severe TBI caused significant neurocognitive defects (as measured by foot faults on a balance beam assay) on post-TBI Day 1, 3 and 7 compared to sham.

rodent brain injury = conditions: cited from earlier work
mild TBI [2] = assay: mild TBI model, myeloperoxidase (MPO) and Gr-1 (neutrophil) staining in the hippocampus; assay type: in vivo, mouse; conditions: same three animal groups
Procedure: In a mild TBI model, ghrelin therapy provided significant neuroprotective effects. Using a controlled cortical impactor, with standardized settings (5.0 m/s, a 3 mm diameter impounder tip, a depth of 1.0 mm, and a dwell time of 0.2 milliseconds), a mouse mild brain injury was elicited in three groups (n=5 in each group), sham, mTBI only, mTBI with 2 doses of ghrelin (50 μg/kg) 10 minutes and 1 hour after injury. Ghrelin reduces oxidative burst (a measure of ROS) following mild TBI in animal models. Oxidative burst was determined 24 hours following mild TBI in three groups via flow cytometry. […] In separate experiments, using the same three animal groups, myeloperoxidase (MPO) and Gr-1 (neutrophil) staining were conducted in the hippocampus. […] Myeloperoxidase (MPO) is a potent enzyme in neutrophils and […] that forms hypochlorous acid (ROS). […] Ghrelin therapy reduced MPO staining. These observations built upon previous work showing ghrelin's protective effect following severe TBI models, stroke and other neurodegenerative diseases.

severe TBI [3] = conditions: cited from earlier work; for brain tissue loss / loss of brain volume: 7 days following injury, 10 minutes and 1 hour after TBI; for brain tissue loss / loss of brain volume / apoptosis in the neocortex (TUNEL staining): ghrelin 20 μg/kg; for apoptosis in the neocortex (TUNEL staining): two doses
mild TBI [4] = assay: mild TBI model (controlled cortical impactor), whole brain oxidative burst assay by flow cytometry; assay type: in vivo, mouse
Procedure: In a mild TBI model, ghrelin therapy provided significant neuroprotective effects. Using a controlled cortical impactor, with standardized settings (5.0 m/s, a 3 mm diameter impounder tip, a depth of 1.0 mm, and a dwell time of 0.2 milliseconds), a mouse mild brain injury was elicited in three groups (n=5 in each group), sham, mTBI only, mTBI with 2 doses of ghrelin (50 μg/kg) 10 minutes and 1 hour after injury. Animals were sacrificed after 24 hours and whole brain reactive oxygen species was assessed by an oxidative burst assay as measured by flow cytometry. […] Ghrelin therapy decreased mTBI oxidative burst to sham levels 3,300 MFI (SEM 1,000); p<0.05 mTBI compared to drug treated.

[5] = human, in vivo; cited from earlier work

GHS-R, sequence (Q92847 whole entry, species assumed): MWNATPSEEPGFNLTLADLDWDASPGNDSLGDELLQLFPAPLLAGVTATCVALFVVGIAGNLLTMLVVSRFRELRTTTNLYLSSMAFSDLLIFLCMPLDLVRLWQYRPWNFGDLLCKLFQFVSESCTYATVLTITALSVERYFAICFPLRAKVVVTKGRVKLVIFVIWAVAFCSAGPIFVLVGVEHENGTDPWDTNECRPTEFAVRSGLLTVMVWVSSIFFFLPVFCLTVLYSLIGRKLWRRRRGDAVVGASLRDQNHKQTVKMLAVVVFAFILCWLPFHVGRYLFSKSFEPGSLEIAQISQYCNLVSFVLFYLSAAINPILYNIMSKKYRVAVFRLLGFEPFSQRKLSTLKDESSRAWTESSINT

Compound CCN(CC)CCCS(=O)(=O)N[C@H](CCc1ccccc1)c1nc(-c2cncc(Br)c2)no1 [Compound 103] has a Ki (GHS-R) of 100 to 500 nM.
For “Ghrelin (GSSFLSPEHQRVQQRKESKKPPAKLQPR; Ghrelin-28; UniProt Q9UBU3 24-51, looked up)”, the “post-severe TBI edema” value (severe TBI [1]) is listed as “significant decrease”, the ROS accumulation (rodent brain injury) is listed as “prevents” and the neuro-cognitive function (rodent brain injury) is listed as “improves”. For the same compound, the neuron tissue loss (rodent brain injury) was “decreases”, the neuronal apoptosis (rodent brain injury) was “prevents” and the “MPO staining in the hippocampus” value (mild TBI [2]) was “significant reduction”. For the same compound, the “neutrophil infiltration (Gr-1 staining) in the hippocampus” value (mild TBI [2]) was “significant reduction”, the “brain tissue loss / loss of brain volume” value (severe TBI [3]; listed as ghrelin) was “significantly less” and the “brain tissue loss / loss of brain volume” value (severe TBI [3]) was “significantly decreased”. For the same compound, the “invasion of inflammatory cells” value (severe TBI [3]) was “decreased”, the “apoptosis in the neocortex (TUNEL staining)” value (severe TBI [3]; listed as ghrelin) was “significantly less” and the “apoptosis in the neocortex (TUNEL staining)” value (severe TBI [3]) was “significantly reduced”. The “neurocognitive function (foot faults on a balance beam assay)” value (severe TBI [3]; post-TBI Day 1, 3 and 7, ghrelin dosed only at Day 0, listed as ghrelin) was “improved”, the “neurocognitive function (foot faults on a balance beam assay)” value (severe TBI [3]; post-TBI Day 1, 3 and 7, ghrelin dosed only at Day 0) was “prevented neurocognitive decline to levels of sham” and the “efficacy in mTBI” value (mild TBI [4]; 50 μg/kg, two doses administered within 24 hours of injury, initial pre-clinical experiments) was “efficacy”. For the same compound, the “oxidative burst (a measure of ROS) following mild TBI” value (mild TBI [4]; 24 hours following mild TBI, flow cytometry) was “significantly reduced”, the “oxidative burst (whole brain reactive oxygen species)” value (mild TBI [4]; mouse mTBI, 2 doses of ghrelin (50 μg/kg) 10 minutes and 1 hour after injury, sacrificed after 24 hours, flow cytometry, n=5) was 3,300 MFI and the serious adverse events [5] was “no serious adverse events”. For the same compound, the side effects observed [5] was “only transient gastrointestinal symptoms”.
